According to patent publication US20050165000A1, “Pharmaceutical compositions containing an hiv integrase inhibitor and a nonionic surfactant” (priority 2002, published 2005):

Legend:
[1] = wettability and water solubility; type: physicochemical
Method: (§1) Since the physiological pH typically lies within this range, the rate of the drug's dissolution in and absorption from the gastrointestinal tract can be low, particularly when the drug is administered in a solid dosage form. The same or similar formulation difficulties can be expected for other 8-hydroxy-1,6-naphthyridine-7-carboxamides of this class and their salts having low solubility at physiological pH's.

HIV replication = test: inhibition of acute HIV infection of T-lymphoid cells; type: cell-based
Source text: The active drug substances employed in the pharmaceutical compositions of the present invention (e.g., the 8-hydroxy-1,6-naphthyridine-7-carboxamide compounds of Formula (I) and (II) and Compounds A and B) are inhibitors of HIV integrase. […] Integrase inhibition activity can be determined, for example, using the assay described in Hazuda et al., J. Virol. 1997, 71: 7005-7011. […] Further description of representative compound embraced by Formula I, assays for measuring their integrase inhibition activity and HIV replication activity can be found in WO 02/30930.

[2] = oral bioavailability when administered to animals; type: in vivo
Method: as §1
Particle size can affect the oral bioavailability of the active drug substances employed in the pharmaceutical compositions of the invention. […] Accordingly, embodiments of the present invention include each of the pharmaceutical compositions defined and described above, wherein the active drug substance (i.e., Compound I or II or A or B or a pharmaceutically acceptable salt thereof) employed therein has a mean particle size of from about 1 to about 20 μm, or from about 1 to about 10 μm (e.g., from about 3 to about 6 μm wherein 90% of the particles are less than 10 μm).

HIV integrase = biological target: T1, HIV integrase (Human immunodeficiency virus type 1 group M subtype B, UniProt P04585); test: integrase inhibition assay, strand transfer catalyzed by recombinant integrase; type: biochemical
T1 construct: strand transfer is catalyzed by recombinant integrase
Source text: Integrase inhibition activity can be determined, for example, using the assay described in Hazuda et al., J. Virol. 1997, 71: 7005-7011.

[3] = in vitro dispersion of Compound A in aqueous surfactant solutions; type: physicochemical; settings: aqueous media at physiological pHs, in the absence of a nonionic surfactant or in the presence of SLS; Na salt milled to 3 μm
Source text: This PK data is consistent with the results of in vitro experiments characterizing the ability of these surfactants to disperse Compound A. In these experiments, Compound A Na salt (milled to a 3 μm mean particle size) was suspended in acidified aqueous solutions of the surfactant, and the surfactants were ranked for effectiveness in dispersing Compound A based on a visual evaluation of the suspension for turbidity and particle size. The visual evaluations were confirmed by measuring the particle size distributions in the suspensions using a laser scattering particle size distribution analyzer. The results of these tests have shown that Compound A drug particles flocculate in aqueous media at physiological pHs in the absence of a nonionic surfactant or in the presence of SLS.

[4] = animals, aqueous suspensions containing 0.5 wt. % methocel and 0.02 wt. % sodium lauryl sulfate

O=C(NCc1ccc(F)cc1)c1nc(N2CCCCS2(=O)=O)c2cccnc2c1O [Compound A, 5-(1,1-dioxido-1,2-thiazinan-2-yl)-N-(4-fluorobenzyl)-8-hydroxy-1,6-naphthyridine-7-carboxamide]
wettability [1]: poor wettability
water solubility ([1]; pH's between about 2 and about 8): low water solubility
inhibition of HIV replication (HIV replication): very effective
oral bioavailability [2, 4]: satisfactory oral bioavailability
HIV integrase inhibition in the strand transfer assay (HIV integrase): potent HIV integrase inhibitors
dispersion of drug particles (turbidity, particle size) [3]: flocculate

O=C(NCc1ccc(F)cc1)c1nc(N2CCCCS2(=O)=O)c2cccnc2c1[O-].[Na+] [Compound A sodium salt, 5-(N-1,4-butanesultam)-N-(4-fluorobenzyl)-8-hydroxy-1,6-naphthyridine-7-carboxamide sodium salt]
oral bioavailability [2, 4]: satisfactory oral bioavailability
oral bioavailability ([2]; animals, wet granulated compressed tablets with lactose, hydroxypropylcellulose, Na croscarmellose, microcrystalline cellulose, Mg stearate (no surfactant)): poor oral bioavailability
oral bioavailability ([2]; capsules containing bulk Compound A sodium salt, versus the suspension): substantially lower oral bioavailability

CNC(=O)c1cc(F)ccc1CNC(=O)c1nc(N2CCCCS2(=O)=O)c2cccnc2c1O [Compound B, N-{4-fluoro-2-[(methylamino)carbonyl]benzyl}-5-(1,1-dioxido-1,2-thiazinan-2-yl)-8-hydroxy-1,6-naphthyridine-7-carboxamide]
inhibition of HIV replication (HIV replication): very effective
HIV integrase inhibition in the strand transfer assay (HIV integrase): potent HIV integrase inhibitors
